# Test results as given in patent publication US20090030013A1, “SUBSTITUTED TETRAHYDRO-QUINOLINE-SULFONAMIDE COMPOUNDS, THEIR PREPARATION AND USE AS MEDICAMENTS” (LABORATORIES DEL DR. ESTEVE, S.A., priority 2007, published 2009).
# Counter-ions that a name gives are not always drawn.
# Target: T1, 5HT6-human recombinant receptor (Homo sapiens, UniProt P50406)
# T1 construct: purchased Receptor Biology; host or cells: HEK-293 cell membranes
# Test: Binding to serotonin receptor 5-HT6 ([3H]-LSD radioligand displacement)
# Conditions: [3H]-LSD 2.7 nM, HEK-293 cell membranes
# Procedure: I) Binding to Serotonin Receptor 5-HT6
# Cell membranes of HEK-293 cells expressing the 5HT6-human recombinant receptor were supplied by Receptor Biology. In said membranes the receptor concentration is 2.18 pmol/mg protein and the protein concentration is 9.17 mg/ml. The experimental protocol follows the method of B. L. Roth et al. [B. L. Roth, S. C. Craigo, M. S. Choudhary, A. Uluer, F. J. Monsma, Y. Shen, H. Y. Meltzer, D. R. Sibley: Binding of Typical and Atypical Antipsychotic Agents to 5-Hydroxytryptamine-6 and Hydroxytryptamine-7 Receptors. The Journal of Pharmacology and Experimental Therapeutics, 1994, 268, 1403] with the following slight changes. The respective part of the literature description is hereby incorporated by reference and forms part of the disclosure.
# The commercial membrane is diluted (1:40 dilution) with the binding buffer: 50 mM Tris-HCl, 10 mM MgCl2, 0.5 mM EDTA (pH 7.4). The radioligand used is [^3H]-LSD at a concentration of 2.7 nM with a final volume of 200 μl. […] Non-specific binding is determined in the presence of 100 μM of serotonin. […] The inhibition constants (Ki, nM) were calculated by non-linear regression analysis using the program EBDA/LIGAND [Munson and Rodbard, Analytical Biochemistry, 1980, 107, 220]., the respective part of which is hereby incorporated by reference and forms part of the disclosure.
# T1 sequence (P50406 whole entry): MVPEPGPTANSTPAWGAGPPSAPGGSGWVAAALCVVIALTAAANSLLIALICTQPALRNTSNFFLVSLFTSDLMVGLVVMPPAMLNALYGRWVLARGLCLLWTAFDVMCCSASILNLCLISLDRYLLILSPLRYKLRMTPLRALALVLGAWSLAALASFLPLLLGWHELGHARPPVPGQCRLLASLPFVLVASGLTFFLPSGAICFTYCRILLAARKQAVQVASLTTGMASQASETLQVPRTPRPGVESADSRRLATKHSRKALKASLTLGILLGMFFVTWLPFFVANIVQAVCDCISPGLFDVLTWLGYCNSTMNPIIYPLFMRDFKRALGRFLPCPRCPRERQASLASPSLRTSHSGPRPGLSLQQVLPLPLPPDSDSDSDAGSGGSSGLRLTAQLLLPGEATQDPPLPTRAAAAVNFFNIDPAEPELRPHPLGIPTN
smiles,measurement,setting,value
"CC1CCc2c(N3CCNCC3)cccc2N1S(=O)(=O)c1cccc2ccccc12 (stereo not drawn) [Compound 3, 1,2,3,4-tetrahydro-2-methyl-5-(piperazin-1-yl)-1-α-naphthylsulfonyl)quinoline trifluoroacetate]",Ki,tests in triplicate,0.0314 ± 0.0008 µM
same,inhibition at 0.1 µM,compound at 10^−7 M,85.8%
